Values joined by “and” are separate entries in the source; they are usually repeats but may differ in a detail not shown here. Identical values can stand only once. Non-standard residues stand in square brackets, D forms with d. Residues, ends and D or L forms follow the SMILES beside them. ξ: configuration not given here. *: point of attachment. X1 = NCCCC[C@H](N)C(=O)NCCCC[C@H](NC(=O)[C@@H](N)CCCCN)C(=O)*; ξGly(dodecyl) = CCCCCCCCCCCCC(N)C(=O)O
Columns and labels:
[1] = system: Human Embryonic Kidney (HEK) 293 cells; test: Transient transfection of HEK 293 cells with GABAA receptor α1 subunit cDNA; format: cell-based; conditions: […] compound 1a
Method: Human Embryonic Kidney (HEK) 293 cells were sub-cultured onto poly-L-lysine coated 35 mm petri dishes such that 24 h later the cells were still sub-confluent. Culture media was replaced on the morning of the transfection procedure. Cells were returned to the CO2—incubator ([…]/95% air) for 3 h.
Compound 1a was incubated with a GABAA receptor αl subunit cDNA-pCDM8 (Mammalian cell expression vector Thompson C. L. et al Neuroscience Let. 144 53–56 (1992)) construct (Fc2 μg/ml) in DMEM at weight ratios of 1:1, 10:1 and 100:1 (1a:α1 cDNA) for 30 minutes prior to transfection.
Cells were washed 3× with serum-free DMEM prior to application of compound 1a/GABAA receptor α subunit cDNA-vector (1ml/dish). Dishes were returned to the incubator (37° C.) for 5 h. Media was then supplemented with DMEM/10% FCS (1 ml/dish), returned to the incubator for 24 h. […]
24 h later the cells were washed 3× with phosphate-buffered saline and then fixed with methanol (−20° C., 25 min, 2 dishes from each regime) or 4% parafarmaldehyde (room temp., 15 min, 2 dishes from each regime). The cells were then processed for GABAA receptor α1 subunit-like immunoreactivity according to Thompson et al. Immunoreactivity was detected by diaminobenzidine staining and visualised under the light microscope.

[2] = In vivo distribution of 3H-dendrimer (liquid scintillation counting); set-up: species or system C57BL/6 mice
Method: Tritiated dendrimer synthesised as described in Example 1 above except 3H labelled BOC-lysine was prepared quantitatively from 3H-lysine purchased commercially based on the method of Keller et al Organ. Synth. 63, 160–170 (1985) (1a: Specific Activity 31Bq/ug @ 5 μg/μl in dH20) were made up to 1.2 μg/μl with 0.9% w/v sodium chloride BP. For each animal, complexes were formed at room temperature by adding 5 μg pCEP4hFIXint (as used in Example 11) in 100 μl 0.9% sodium chloride BP) dropwise to 100 μl dendrimer solution (dendrimer:DNA charge ratio about 4:1) with moderate vortexing. The complexes were then sonicated on ice with a hand-held probe at low power setting several times with three second pulses.
Male C57BL/6mice (8–10 weeks) were divided into two groups. The first group (n=8) were given approx. 150–200 μl of the complexes (exact dose determined by difference in weight of syringe pre/post injection) via tail vein injection. The second (n=4) were administered 150 μl of the complexes in a dosed food particle (isolation/observation confirmed ingestion of the food particle). At time-points 2 hours, 24 hours, 4 days, 7 days (group 1) and 24 hours, and 7 days (group 2) the mice were sacrificed and organs/fluids harvested. Blood and urine were collected when possible post mortem, the former in citrate tubes. Organs were weighed and immediately immersed in liquid nitrogen cooled isopentane to be kept at −80° C.
Organ samples for liquid scintillation counting (for detecting dendrimer) were processed as per “Packard Counting Solutions” protocol for samples <30 mg using Solvable (Packard) for all tissues except blood, urine and digestive tract tissues that were dissolved using Soluene-350 (Packard). The LSC cocktail used was Ultima Gold. Counting time was 10 minutes. Detection of episomal DNA was performed by PCR using primers that amplified a 460 bp section of the plasmid of the 3′ end of hFIX cDNA and the SV40 pA region

Rat red blood cells = test: RBC lysis, compound alone or complexed with pSVβgal; conditions: pSVβgal 0.0125 μg/μl, 1 hour at 37° C.
Method: Rat red blood cells were obtained by centrifugation of complete blood. A 2% suspension of cells was made in phosphate buffered saline. […] The lysate supernatant was recovered by centrifugation and the absorbance measured at 540 nm. (Concentration of pSVβgal was 0.0125 μg/μl).

For `CCCCCCCCCCCCC(NC(=O)C(CCCCCCCCCCCC)NC(=O)C(CCCCCCCCCCCC)NC(=O)[C@H](CCCCNC(=O)[C@H](CCCCNC(=O)[C@@H](N)CCCCN)NC(=O)[C@@H](N)CCCCN)NC(=O)[C@H](CCCCNC(=O)[C@@H](N)CCCCN)NC(=O)[C@@H](N)CCCCN)C(N)=O` (some centres unmarked) [Compound 1a] (H-KK(Lys)K(X1)[ξGly(dodecyl)][ξGly(dodecyl)][ξGly(dodecyl)]-NH2), the cell viability [1] was “deleterious to cell viability”, the “% age Total Dose, Heart” value ([2]; Oral, 24 hours) was 0.53% and the “% age Total Dose, Kidney” value ([2]; Oral, 24 hours) was 0.52% and 0.29%. The “% age Total Dose, Liver” value ([2]; Oral, 24 hours) was 3.70% and 1.84%, the “% age Total Dose, Lungs” value ([2]; Oral, 24 hours) was 0.78% and the “% age Total Dose, Spleen” value ([2]; Oral, 24 hours) was 0.16% and 0.13%. For the same compound, the “% age Total Dose, Urine” value ([2]; Oral, 24 hours) was 0.48% and 0.75%, the “% age Total Dose, Heart” value ([2]; i.v., 2 hours) was 0.22% and 0.06% and the “% age Total Dose, Kidney” value ([2]; i.v., 2 hours) was 0.34% and 0.48%. For the same compound, the “% age Total Dose, Liver” value ([2]; i.v., 2 hours) was 10.35% and 2.07%, the “% age Total Dose, Lungs” value ([2]; i.v., 2 hours) was 0.47% and 0.13% and the “% age Total Dose, Spleen” value ([2]; i.v., 2 hours) was 1.00% and 0.30%. For the same compound, the “Activity, Urine” value ([2]; i.v., 2 hours) was “(21 Bq/0.1 ml)”, the “% age Total Dose, Heart” value ([2]; i.v., 24 hours) was 0.80% and 4.89% and the “% age Total Dose, Kidney” value ([2]; i.v., 24 hours) was 0.57% and 1.63%. For the same compound, the “% age Total Dose, Liver” value ([2]; i.v., 24 hours) was 8.05% and 0.71%, the “% age Total Dose, Spleen” value ([2]; i.v., 24 hours) was 0.61% and 0.07% and the “% age Total Dose, Urine” value ([2]; i.v., 24 hours) was 0.52%. For the same compound, the “% age Total Dose, Heart” value ([2]; i.v., 4 days) was 1.48%, the “% age Total Dose, Lungs” value ([2]; i.v., 4 days) was 0.95% and the “% age Total Dose, Muscle” value ([2]; i.v., 4 days) was 0.03%. The “% age Total Dose, Spleen” value ([2]; i.v., 4 days) was 0.18%, the “% age Total Dose, Urine” value ([2]; i.v., 4 days) was 1.3% and the “% age Total Dose, Heart” value ([2]; i.v., 7 days) was 1.53%. For the same compound, the “% age Total Dose, Kidney” value ([2]; i.v., 7 days) was 0.89% and 5.68%, the “% age Total Dose, Liver” value ([2]; i.v., 7 days) was 2.91% and 6.53% and the “% age Total Dose, Lungs” value ([2]; i.v., 7 days) was 0.16%. The “% age Total Dose, Spleen” value ([2]; i.v., 7 days) was 0.53% and 0.51%.
In the case of `CCCCCCCCCCCCC(NC(=O)C(CCCCCCCCCCCC)NC(=O)C(CCCCCCCCCCCC)NC(=O)[C@H](CCCCNC(=O)[C@H](CCCCNC(=O)[C@H](CCCCNC(=O)[C@@H](N)CCCCN)NC(=O)[C@@H](N)CCCCN)NC(=O)[C@H](CCCCNC(=O)[C@@H](N)CCCCN)NC(=O)[C@@H](N)CCCCN)NC(=O)[C@H](CCCCNC(=O)[C@H](CCCCNC(=O)[C@@H](N)CCCCN)NC(=O)[C@@H](N)CCCCN)NC(=O)[C@H](CCCCNC(=O)[C@@H](N)CCCCN)NC(=O)[C@@H](N)CCCCN)C(N)=O` (some centres unmarked) [Compound 1b], the “effect of complexing to DNA on erythrocyte lysis” value (Rat red blood cells) is reported as “reduces levels of erythrocyte lysis”.

From US7081495B1, “Cationic compounds and their use as macro molecular carriers” (School of Pharmacy, University of London, priority 1998, dated 2006)
